These results are taken from ChEMBL document CHEMBL5058564, “EUbOPEN Chemogenomics Library 2 (Incucyte)” (2022).

Structures are written as SMILES.

Holding throughout (type): toxicity, cell-based
One data set has as its system HEK-293T. The data set can be described thus: Incucyte cell viability with HEK293T. The conditions noted are these: human, 10 µM, compound concentration 10 uM.
The next data set relates to Fibroblast. The data set can be described thus: Incucyte cell viability with human fibroblast. The conditions noted are these: 10 µM, compound concentration 10 uM.
For a further data set, the system named is U2OS. The data set can be described thus: Incucyte cell viability with U2OS. The conditions noted are these: human, 10 µM, compound concentration 10 uM.
[1] abbreviates: 6 h, replicate number 1, timepoint 6 hours.
Where [2] appears, read: 6 h, replicate number 2, timepoint 6 hours.
Setting [3] is: 12 h, replicate number 1, timepoint 12 hours.
Where [4] appears, read: 12 h, replicate number 2, timepoint 12 hours.
The mark [5] stands for this setting: 18 h, replicate number 1, timepoint 18 hours.
[6] abbreviates: 18 h, replicate number 2, timepoint 18 hours.
[7] abbreviates: 24 h, replicate number 1, timepoint 24 hours.
[8] abbreviates: 24 h, replicate number 2, timepoint 24 hours.
[9] abbreviates: 0 h, replicate number 2, timepoint 0 hours.
The mark [10] stands for this setting: 0 h, replicate number 1, timepoint 0 hours.
Further: unitless GR value; below 1 slowed growth and below 0 cell loss.

With `COc1cc(Nc2ncc3c(n2)-c2ccc(Cl)cc2C(c2c(F)cccc2OC)=NC3)ccc1C(=O)O` [ALISERTIB], the “Growth Rate” value with HEK-293T (setting [1]) is -0.03; in the data set on HEK-293T (setting [2]) it was 0.03; with HEK-293T (setting [3]) it was 0.13; in the data set on HEK-293T (setting [4]) it was 0; in the data set on HEK-293T (setting [5]), 0.39; in the data set with HEK-293T (setting [6]) it was 0.33. For the same compound, the “Growth Rate” value is recorded as 0.38 in the data set with HEK-293T (setting [7]); 0.26 in the data set with HEK-293T (setting [8]); 0.68 in the data set on Fibroblast (setting [9]); -0.97 in the data set on Fibroblast (setting [1]); -0.09 in the data set with Fibroblast (setting [2]); -0.79 in the data set with Fibroblast (setting [3]). Also, the “Growth Rate” value in the data set with Fibroblast (setting [4]) was -0.17; in the data set with Fibroblast (setting [5]), -0.64; in the data set on Fibroblast (setting [6]), -0.13; in the data set with Fibroblast (setting [7]), -0.39; in the data set with Fibroblast (setting [8]) it was -0.09; with U2OS (setting [10]), -0.14. Besides, the “Growth Rate” value in the data set with U2OS (setting [9]) was 0.41; in the data set on U2OS (setting [1]), 0.83; with U2OS (setting [3]) it was 0.43; in the data set on U2OS (setting [4]), 0.54; with U2OS (setting [5]) it was 0.19; in the data set with U2OS (setting [6]) it was 0.45. The “Growth Rate” value in the data set on U2OS (setting [7]) is 0.39; with U2OS (setting [8]), 0.65.
Regarding `Cc1sc2c(c1C)C(c1ccc(Cl)cc1)=N[C@H](CC(=O)OC(C)(C)C)c1nnc(C)n1-2`, the “Growth Rate” value is listed as 0.38 in the data set on HEK-293T (setting [10]); 0.63 with HEK-293T (setting [9]); 0.95 with HEK-293T (setting [4]); 0.85 in the data set on HEK-293T (setting [5]); 0.87 in the data set with HEK-293T (setting [6]); 0.81 with HEK-293T (setting [7]). In addition, the “Growth Rate” value in the data set on HEK-293T (setting [8]) is on record as 0.86; in the data set with Fibroblast (setting [1]) it was -0.25; with Fibroblast (setting [3]) it was 0.45; in the data set with Fibroblast (setting [5]), 0.98; in the data set on Fibroblast (setting [7]), 0.98; in the data set on U2OS (setting [1]) it was 0.83. Further, the “Growth Rate” value with U2OS (setting [3]) stood at 0.95; in the data set on U2OS (setting [5]) it was 0.97; with U2OS (setting [7]), 0.92.
For the compound `CCOc1ccc(Cc2nc3cc(C(=O)N(CC)CC)ccc3n2CC2CCCCC2)cc1`, the “Growth Rate” value with HEK-293T (setting [10]) was 0.75; in the data set on HEK-293T (setting [9]), 0.57; with HEK-293T (setting [2]) it was 0.53; with HEK-293T (setting [3]), 0.75; in the data set with HEK-293T (setting [5]), 0.86; in the data set on HEK-293T (setting [7]), 0.93. Moreover, the “Growth Rate” value in the data set on Fibroblast (setting [10]) is 0.96; in the data set on Fibroblast (setting [2]), 0.61; with Fibroblast (setting [4]), 0.58; in the data set on Fibroblast (setting [6]), 0.98; with U2OS (setting [10]), -0.21; in the data set with U2OS (setting [9]) it was -1. In addition, in the data set on U2OS (setting [6]), the “Growth Rate” value worked out at 1.
For `NC(=O)c1cc2c(-c3ccc(C(=O)NCc4ccnc(Cl)c4)s3)cccc2s1`, the “Growth Rate” value in the data set on HEK-293T (setting [1]) is on record as -0.01; in the data set on HEK-293T (setting [2]) it was 0.1; in the data set on HEK-293T (setting [3]), -0.09; in the data set with HEK-293T (setting [4]), 0.13; in the data set with HEK-293T (setting [5]) it was -0.18; with HEK-293T (setting [6]) it was -0.06. Further, the “Growth Rate” value in the data set on HEK-293T (setting [7]) was -0.15; in the data set with HEK-293T (setting [8]), 0.01; in the data set on Fibroblast (setting [1]), -0.81; with Fibroblast (setting [2]) it was -0.97; in the data set with Fibroblast (setting [3]), -0.77; in the data set on Fibroblast (setting [4]) it was -0.62. Also, the “Growth Rate” value in the data set on Fibroblast (setting [5]) is reported as -0.53; in the data set with Fibroblast (setting [6]), -0.15; with Fibroblast (setting [7]), -0.39; in the data set with Fibroblast (setting [8]), 0.32; with U2OS (setting [9]), -0.83; in the data set with U2OS (setting [1]) it was -0.27. The “Growth Rate” value is listed as 0.04 in the data set on U2OS (setting [2]); -0.23 in the data set on U2OS (setting [3]); 0.03 in the data set with U2OS (setting [4]); 0.07 in the data set with U2OS (setting [5]); 0 in the data set on U2OS (setting [6]); -0.11 with U2OS (setting [7]). For the same compound, the “Growth Rate” value with U2OS (setting [8]) is given as -0.08.
